Tests used:
[1] = test system: MES, PTZ and amygdala-kindling seizure models; settings: systemic PTZ; cited from earlier work
[2] = test system: partial, tonic-clonic and generalized seizures; settings: clinically; cited from earlier work
APPL/S mice [3] = test: APP immunolabeling for dystrophic neurites, Thioflavin S staining for amyloid plaques in hippocampus; format: in vivo; settings: transgenic mouse model of AD, APPL/S mice given vehicle or LM11A-31
Protocol: (§1) FIG. 30A is a photomicrograph of APP immunolabeling for dystrophic neurites (left) and Thioflavin S staining for amyloid plaques (right) in hippocampus of APPL/S mice given vehicle or LM11A-31 as indicated. Scale bars=25 μm. FIG. 30B is a photomicrograph of choline acetyltransferase-immunostained basal forebrain sections. Treatment of APPL/S mice with LM11A-31 was associated with increased length, volume, and branching of cholinergic neurites. […] Statistical significance was determined using ANOVA and post-hoc Student-Neuman-Keuls testing.

APPL/S mice [4] = test: choline acetyltransferase immunostaining of cholinergic neurites in basal forebrain; format: in vivo, mouse; settings: basal forebrain sections
Protocol: as §1

APP/PS1 mice [5] = test: LTP / synaptic function in hippocampal slice preparations from AD model mice; design: species or system mouse; settings: hippocampus
APPL/S mice [6] = test: novel object recognition; format: in vivo, mouse
APPL/S mice [7] = settings: APPL/S transgenic AD mouse model; cited from earlier work
APPL/S mice [8] = settings: basal forebrain and hippocampus; cited from earlier work
APP/PS1 mice [9] = settings: slices derived from AD model mice; cited from earlier work
APPL/S mice [10] = settings: APPL/S transgenic AD mouse model; cited from earlier work; remark: listed apart in the source
[11] = test system: APPL/S transgenic AD mouse model; settings: cited from earlier work
[12] = test system: amyloid-P-induced neurodegenerative mechanisms; settings: previous in vitro studies; cited from earlier work
[13] = after oral administration; cited from earlier work
PTZ seizures = settings: prior studies; cited from earlier work

For `CC[C@@H](C(N)=O)N1CCCC1=O` [LEV, levetiracetam], the “efficacy in conventional epilepsy models” value [1] is given as “efficacy only in amygdala-kindling” and the “clinical efficacy by seizure type” value [2] is given as “efficacy for partial, tonic-clonic and non-convulsive generalized seizures”.

With `CC[C@H](C)[C@H](N)C(=O)NCCN1CCOCC1` [LM11A-31] the “dystrophic neurites and amyloid plaque formation in the hippocampus” value (APPL/S mice [3]) was “rescued significantly”, the “length, volume, and branching of cholinergic neurites” value (APPL/S mice [4]) was “increased” and the LTP (APP/PS1 mice [5]) was “normalizes”. The object recognition deficits (APPL/S mice [6]) was “prevented”, the amyloid levels (APPL/S mice [7]) was “without affecting” and the cholinergic neuritic dystrophy (APPL/S mice [8]) was “prevented”. The “synaptic impairment in hippocampal slice preparations” value (APP/PS1 mice [9]) was “reversed”, the “deficits in novel object recognition” value (APPL/S mice [10]) was “prevented deficits” and the “deficits in Y-maze performance” value [11] was “prevented deficits”. The amyloid-P-induced neurodegenerative mechanisms [12] was “prevented”, the brain concentrations [13] was “reach brain concentrations known to provide neuroprotection in vitro” and the “crossing of the blood brain barrier” value [13] was “cross the blood brain barrier”.

For `O=C1NC(=O)C(c2ccccc2)(c2ccccc2)N1` [PHT, phenytoin], the “clinical efficacy by seizure type” value [2] is listed as “efficacy in partial and generalized tonic-clonic seizures”.

For `O=C1Nc2ccc(Cl)cc2C(c2ccccc2Cl)=NC1O` (stereo not drawn) [lorazepam], the “efficacy in conventional epilepsy models” value [1] is given as “efficacy in all three conventional models” and the “clinical efficacy by seizure type” value [2] is given as “efficacy in partial and generalized tonic-clonic seizures”.

For `CC[C@@H](CO)NC(=O)[C@@H]1C=C2c3cccc4c3c(cn4C)C[C@H]2N(C)C1` [methylsergide], the “effect on the beneficial effect of ANT electrical stimulation to raise threshold for PTZ seizures” value (PTZ seizures) is listed as “largely blocked”.

— US11672466B2, “System and method for modeling brain dynamics in normal and diseased states” (THE REGENTS OF THE UNIVERSITY OF CALIFORNIA, priority 2013, dated 2023)
